Source: paper PMC5978685, “Design, Synthesis, and Evaluation of Novel Immunomodulatory Small Molecules Targeting the CD40–CD154 Costimulatory Protein-Protein Interaction” (Molecules : A Journal of Synthetic Chemistry and Natural …, 2018)

Columns and labels:
[1] = test system: CD154-induced NF-κB activation in CD40 sensor cells; assay: CD40 sensor cell assay (HEK Blue CD40, SEAP reporter); assay type: cell-based, human; conditions: for IC50: Homo sapiens, CD154 100 ng/mL, 24 h
Source text: (§1) As further confirmation of the inhibitory activity of our compounds, a cell-based assay was used with sensor cells (HEK Blue CD40) containing a secreted embryonic alkaline phosphatase (SEAP) reporter gene under the control of a promoter fused to a NF-κB binding site and transfected with CD40. […] For all tested compounds, the corresponding IC50 values are higher than those determined in the cell-free binding inhibition assay (Table 1) representing a loss of activity which is likely due to non-specific binding on account of the presence of proteins and cells in the assay, as well as hydrophobicity-related problems. Cytotoxicities were also evaluated in these same cells and at the same concentrations using a standard MTS assay to ensure that effects are present at non-toxic concentration levels.
CD40 expressing NF-κB sensor cells (HEK Blue, InvivoGen, San Diego, CA, USA) were used to assess the ability of the present compounds to block CD154-induced activation as described before. Briefly, cells were maintained in DMEM at 80% confluence for each experiment. Cells were trypsinized and re-suspended in the same medium without FBS and seeded on 96-well microtiter plates at a density of 50,000 cells/well in the absence and presence of various concentrations of compounds diluted in the same media. For ligand mediated stimulation, a concentration of recombinant human CD154 (100 ng/mL) found to induce an optimal response was maintained in the wells for this purpose. After 24 h of incubation at 37 °C, 40 μL supernatant of each well were taken and added to another 96-well microtiter plate containing 160 μL/well of QUANTI-Blue (InvivoGen). The level of SEAP was determined after 1 h of incubation at 37 °C by reading at 650 nm using a spectrophotometer. A monoclonal anti-human CD154 antibody (clone 40804, R&D Systems, Minneapolis, MN, USA) was used as a positive control at 240 nM concentration.
(§2) All binding inhibition and cell assays were tested in duplicate or triplicate per plates, and assays were performed as at least three independent experiments. As before, binding and cytotoxicity data were converted to percent inhibition and fitted with standard log inhibitor vs. normalized response models using nonlinear regression in GraphPad Prism (GraphPad, La Jolla, CA, USA) to establish half-maximal (median) inhibitory concentration (IC50) or median lethal concentration (LC50) values. Cell assay data were fitted with a similar model that also allowed for a variable slope using the log inhibitor vs. normalized response (variable slope) model from Prism with a Hill slope (n) shared across all compounds. Cell assays and draining lymph node data were analyzed by one-way repeated-measures analysis of variance (ANOVA) followed by Dunnett’s multiple comparison test as a post hoc test for individual differences using GraphPad Prism and a significance level of p < 0.05 for all comparisons.
Figure 5 Inhibition of CD154-induced NF-κB activation in CD40 sensor cells by compounds 6, 14, 15, and 18 in a concentration-dependent manner. Tartrazine (TZ) and an anti-CD154 antibody (mAb; single dose, 240 nM) were included as negative and positive controls, respectively. Data are average ± SD (normalized to CD154-activated cells alone) for n = 2 independent experiments with duplicates for each condition.

BAFFR–BAFF = target: T1, BAFFR–BAFF (Homo sapiens, UniProt Q9Y275); assay: cell-free ELISA-type binding inhibition assay, BAFFR–BAFF
T1 construct: purchased Enzo Life Sciences
T1 sequence (Q9Y275 134-285 limits assumed): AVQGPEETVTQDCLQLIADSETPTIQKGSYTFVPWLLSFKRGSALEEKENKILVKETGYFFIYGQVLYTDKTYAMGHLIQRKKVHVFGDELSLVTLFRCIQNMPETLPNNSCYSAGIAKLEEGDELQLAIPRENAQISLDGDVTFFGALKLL
Experimental: In parallel with the CD40–CD154 assay, the ability of these compounds to inhibit other TNFSFR–TNFSF PPIs, including OX40–OX40L, BAFFR–BAFF, and TNF-R1–TNF-α, was also assessed (Figure 3B–D).
Binding inhibition assays were performed in a 96-well cell-free format as described before. Briefly, microtiter plates (Nunc F Maxisorp, 96-well; Thermo Fisher Scientific, Waltham, MA, USA) were coated overnight at 4 °C with 100 μL/well of Fc-conjugated receptors diluted in PBS pH 7.2. This was followed by blocking with 200 μL/well of blocking solution (PBS pH 7.2, 0.05% Tween-20, 1% BSA) for 1 h at RT. Then, plates were washed twice using washing solution (PBS pH 7.4, 0.05% Tween-20) and tapped dry before the addition of the appropriate FLAG tagged ligands along with different concentrations of tested dyes diluted in binding buffer (100 mM HEPES, 0.005% BSA pH 7.2) to give a total volume of 100 μL/well. After 1 h incubation, three washes were conducted, and anti-FLAG HRP conjugate was used to detect the bound FLAG-tagged ligand. Plates were washed four times before the addition of 120 μL/well of HRP substrate TMB (3,3′,5,5′-tetramethylbenzidine) and kept in the dark for up to 15 min. The reaction was stopped using 30 μL of 1M H2SO4, and the absorbance value was read at 450 nm. The concentrations of receptors used were 0.3 μg/mL for CD40, TNF-R1, and BAFFR; 0.6 μg/mL for OX40. The concentrations of the ligands were fixed at 0.02 μg/mL for CD154 and TNF-α, 0.06 μg/mL for OX40L, and 0.03 μg/mL for BAFF. These values were selected following preliminary testing to optimize response (i.e., to produce a high-enough signal at conditions close to half-maximal response, EC50). […] To verify that inhibition is not due to colloidal aggregation, CD40 binding inhibition was also measured in the presence of the non-ionic detergent Triton-X 100 (0.01%), as recommended for the detection of such effects.
as §2
Data are (counterclockwise) for human CD40–CD154 (CD40L) (A); OX40–OX40L (B); BAFFR–BAFF (C); and TNF-R1–TNFα (D) and were fitted with standard binding curves. Data are average ± SD (normalized to percent binding) for n = 3 independent experiments with duplicates for each condition.

CD40–CD154 (CD40L) = target: T2, CD40–CD154 (CD40L) (Homo sapiens, UniProt P29965); set-up: method as in PMID 29024591; conditions: 95% CI of 235–401; read-out: CD40–CD154 IC50 (previous assessment); cited from earlier work
T2 construct: purchased Enzo Life Sciences
T2 sequence (P29965 116-261 limits assumed): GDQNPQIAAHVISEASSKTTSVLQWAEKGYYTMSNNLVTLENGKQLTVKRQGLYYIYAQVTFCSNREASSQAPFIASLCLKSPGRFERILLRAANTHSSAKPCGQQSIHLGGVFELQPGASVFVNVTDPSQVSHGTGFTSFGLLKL

[2] = MTS cytotoxicity assay in HEK Blue cells; assay type: cell-based; conditions: human, HEK Blue CD40 sensor cells; HEK Blue cells, 24 h; read-out: LC50 (cytotoxicity, MTS)
Source text: as §1
For the MTS assay, HEK Blue cells were cultured and prepared in the same manner as in the CD40 sensor assay. Then cells were added to a 96-well microtiter plate at a density of 50,000 cells/well in the absence or presence of various concentrations of compounds diluted in the same media, without the addition of CD154. The plate was incubated at 37 °C for 24 h. 20 µL per well of MTS, 3-(4,5-dimethylthiazol-2-yl)-5-(3-carboxymethoxyphenyl)-2-(4-sulfophenyl)-2H-tetrazolium, (Promega, Madison, WI, USA) was added to the culture after treatments, and cells were incubated at 37 °C for 4 h. Formazan levels were measured using a plate reader at 490 nm.
as §2

| Structure (SMILES) | inhibition of CD154-induced NF-κB activation (qualitative) [1] | IC50 [1] [µM] | IC50 (BAFFR–BAFF) [µM] | IC50 (CD40–CD154 (CD40L)) [µM] | CC50 at 24 h [2] [µM] |
| --- | --- | --- | --- | --- | --- |
| O=C(Nc1ccc(-c2ccc(C(=O)Nc3cccc4cccc(S(=O)(=O)O)c34)cc2)cc1)c1ccc([N+](=O)[O-])cc1 [Compound 6, 8-(4′-(4-Nitrobenzamido)biphenyl-4-ylcarboxamido)naphthalene-1-sulfonic acid] | concentration-dependent inhibition | 19.9 | 0.328 | 0.307 |  |
| O=C(Nc1ccc(-c2ccc(C(=O)Nc3cccc4cccc(S(=O)(=O)O)c34)cc2)nc1)c1ccc([N+](=O)[O-])cc1 [Compound 18, 8-(4-(5-(4-Nitrobenzamido)pyridin-2-yl)benzamido)naphthalene-1-sulfonic acid] | concentration-dependent inhibition | 8.7 | 8.07 |  | 131 |
| COC(=O)c1ccc(-c2ccc(C(=O)Nc3ccc(-c4ccc(C(=O)Nc5cccc6cccc(S(=O)(=O)O)c56)cc4)cc3)cc2)cc1 [Compound 15, 8-(4′-(4′-(Methoxycarbonyl)-[1,1′-biphenyl]-4-carboxamido)-[1,1′-biphenyl]-4-carboxamido)naphthalene-1-sulfonic acid] | concentration-dependent inhibition | 6 | 1.52 |  |  |
